Laboratory results from article PMC3646888 (PLoS ONE, 2013).
“Also recorded” adds a separate entry of the source.

Assays:
Type in all cases: in vitro ADME
CYP1A2h = molecular target: T1, CYP1A2h (Homo sapiens, UniProt P05177); test: Fluorescence-based CYP assay, recombinant CYP1A2h, substrate CEC
T1 sequence (P05177 1-516): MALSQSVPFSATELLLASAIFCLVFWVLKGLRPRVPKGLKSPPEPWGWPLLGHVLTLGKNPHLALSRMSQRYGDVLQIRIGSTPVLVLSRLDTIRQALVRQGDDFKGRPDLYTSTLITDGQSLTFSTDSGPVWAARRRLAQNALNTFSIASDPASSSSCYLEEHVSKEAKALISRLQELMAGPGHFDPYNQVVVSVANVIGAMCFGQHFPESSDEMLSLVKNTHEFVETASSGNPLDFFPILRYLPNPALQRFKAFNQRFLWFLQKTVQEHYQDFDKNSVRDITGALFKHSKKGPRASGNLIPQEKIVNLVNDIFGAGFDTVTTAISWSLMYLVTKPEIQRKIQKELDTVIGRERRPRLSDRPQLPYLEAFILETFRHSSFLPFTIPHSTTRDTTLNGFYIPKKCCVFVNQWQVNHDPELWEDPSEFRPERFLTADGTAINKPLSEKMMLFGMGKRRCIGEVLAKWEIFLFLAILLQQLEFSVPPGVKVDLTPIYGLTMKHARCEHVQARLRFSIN
Procedure: (§1) These assays were performed by methods similar to those described by VanAlstine and Hough, Stresser et al., Wulff et al., Henderson et al., and Crespi et al., with minor modifications. All incubations were performed in a final volume of 200 µL of 50 mM potassium phosphate buffer at pH 7.4 containing 1% acetonitrile. CYP inhibitor studies were performed according to the parameters of Table 1. Substrate concentrations were chosen to be near known Km values. As described in the references cited, two different NADPH regenerating systems were used depending on the substrates used (Table 1). […] Samples were pre-incubated at 37°C for the designated times, and the reactions were initiated with the addition of a substrate and enzyme mixtures (Table 1). […] For the assays utilizing the “high” regenerating system, enzyme reactions were terminated at the designated time by the addition of 75 µL of 2N NaOH, followed by a 2 h post-incubation at 37°C. Product formation was then measured at the designated wavelengths (Table 1). For the “low” regenerating system assays, blanks and standards were prepared in 0.1 mL buffer without the regenerating system. For the “high” regenerating system assays, blanks and standards containing 0.1 mL of buffer received 75 µL of 2N NaOH following pre-incubation.

CYP3A4 [1] = molecular target: T2, CYP3A4 (Homo sapiens, UniProt P08684); test: Fluorescence-based CYP3A4 assay with DBF as substrate
T2 sequence (P08684 whole entry): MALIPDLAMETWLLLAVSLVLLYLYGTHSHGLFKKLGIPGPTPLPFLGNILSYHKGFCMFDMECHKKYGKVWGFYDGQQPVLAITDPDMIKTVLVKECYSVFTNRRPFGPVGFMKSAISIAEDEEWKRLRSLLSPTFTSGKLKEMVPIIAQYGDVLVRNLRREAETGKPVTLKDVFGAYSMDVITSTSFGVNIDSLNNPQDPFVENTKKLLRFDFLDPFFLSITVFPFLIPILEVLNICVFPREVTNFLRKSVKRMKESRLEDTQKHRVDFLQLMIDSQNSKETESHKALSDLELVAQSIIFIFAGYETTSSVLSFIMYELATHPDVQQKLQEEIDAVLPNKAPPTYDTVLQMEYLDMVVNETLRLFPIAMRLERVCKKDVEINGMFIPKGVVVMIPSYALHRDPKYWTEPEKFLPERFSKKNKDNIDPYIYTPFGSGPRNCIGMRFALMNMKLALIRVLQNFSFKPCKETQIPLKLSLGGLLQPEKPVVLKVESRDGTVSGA
Procedure: as §1

CYP3A4 [2] = molecular target: T2, CYP3A4; test: Fluorescence-based CYP3A4 assay with BFC as substrate
Procedure: as §1

CYP3A4 [3] = molecular target: T2, CYP3A4; test: CYP3A4 assay with LVS as substrate (LC-MS/MS); details: for IC50 at 20 min: human; for IC50: substrate LVS 10 µM
Procedure: CYP3A4-containing Supersomes (2 pmol) were incubated with LVS (10 µM) in a 200 µl reaction mixture containing 0.1 M potassium phosphate buffer, pH 7.4, 1.0 mM NADPH, and 3 mM MgCl2 for 20 min at 37°C. The reaction was initiated by the addition of NADPH, and terminated by the addition of 400 µL of acetonitrile to the reaction mixture. Samples were extracted and analyzed for the two major LVS metabolites 6′β-hydroxy LVS and 6′-exomethylene LVS by LC-MS-MS exactly as described.

For `Clc1ccccc1C(c1ccccc1)(c1ccccc1)n1cccn1` [TRAM-34, 1-[(2-chlorophenyl)diphenylmethyl]-1H-pyrazole], the IC50 (CYP1A2h) was greater than 80000 nM, the “Inhibition of CYP1A2h (in words)” value (CYP1A2h; up to 80 µM) was “little to no inhibition; also recorded: no inhibitory effects” and the IC50 (CYP3A4 [1]) was 3600 nM. The “Effect on CYP3A4 activity with BFC (in words)” value (CYP3A4 [2]; substrate BFC) was “concentration-dependent stimulation”, the “Magnitude of stimulation of CYP3A4 with BFC” value (CYP3A4 [2]; substrate BFC 50 µM, maximum stimulation) was roughly 200% and the IC50 at 20 min (CYP3A4 [3]; pH 7.4, IC50, formation of 6′-exomethylene LVS by CYP3A4, substrate LVS 10 µM) was 640 nM. It also gave an IC50 at 20 min (CYP3A4 [3]; pH 7.4, IC50, formation of 6′β-hydroxy LVS by CYP3A4, substrate LVS 10 µM) of 920 nM, an IC50 (CYP3A4 [3]; read-out: IC50, formation of 6′-exomethylene LVS by CYP3A4) of roughly 1000 nM and an IC50 (CYP3A4 [3]; read-out: IC50, formation of 6′β-hydroxy LVS by CYP3A4) of roughly 1000 nM.
